Measured values published in ChEMBL document CHEMBL1201862, “PubChem BioAssay data set” (2004).
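Cells were grown in 96-well plates and exposed to each compound for 48 hours at five concentrations; endpoints were interpolated linearly between bracketing concentrations, or set to the highest concentration if not reached. The concentration for 50% growth inhibition is given as GI50.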 Calls of active or inactive are those of the source. Rule as the data show it: active = GI50 up to about 1.1 µM and inactive = higher.

Tests used:
Assay in all cases: NCI tumour cell line growth inhibition, 48 h
[1] = test system: CAKI-1
[2] = test system: EKVX
[3] = test system: HCT-116
[4] = test system: HCT-15
[5] = test system: HL-60
[6] = test system: MDA-MB-231
[7] = test system: MDA-MB-435
[8] = test system: NCI-H226
[9] = test system: NCI-H522
[10] = test system: PC-3
[11] = test system: RPMI-8226
[12] = test system: SF-268
[13] = test system: SF-295
[14] = test system: SF-539
[15] = test system: SK-MEL-28
[16] = test system: SK-MEL-2
[17] = test system: SK-OV-3
[18] = test system: SNB-75
[19] = test system: SR
[20] = test system: U-251

Row | SMILES | GI50 [1] | GI50 [2] | GI50 [3] | GI50 [4] | GI50 [5] | GI50 [6] | GI50 [7] | GI50 [8] | GI50 [9] | GI50 [10] | GI50 [11] | GI50 [12] | GI50 [13] | GI50 [14] | GI50 [15] | GI50 [16] | GI50 [17] | GI50 [18] | GI50 [19] | GI50 [20]
1 | C[n+]1cn(C2=C([N-]S(=O)(=O)c3ccccc3)C(=O)c3ccccc3C2=O)c2ccccc21 | > 100 µM (inactive) | > 100 µM (inactive) | 22.9 µM (inactive) | > 100 µM | 13 µM (inactive) | 20.1 µM (inactive) | 2.79 µM (inactive) | 56.4 µM (inactive) | 11.9 µM (inactive) | 27.9 µM (inactive) | 71.3 µM (inactive) | 31.6 µM (inactive) | 61.4 µM (inactive) | 31.4 µM (inactive) | 36.1 µM (inactive) | 11.5 µM (inactive) | > 100 µM (inactive) | 24.3 µM (inactive) | 44.6 µM (inactive) | 19.3 µM (inactive)
2 | C[C@H]1CC[C@]2(NC1)O[C@H]1C[C@H]3[C@@H]4CC[C@H]5C[C@@H](O[C@@H]6O[C@H](CO)[C@H](O[C@@H]7O[C@H](CO)[C@@H](O)[C@H](O[C@@H]8OC[C@@H](O)[C@H](O)[C@H]8O)[C@H]7O[C@@H]7O[C@H](CO)[C@@H](O)[C@H](O)[C@H]7O)[C@H](O)[C@H]6O)CC[C@]5(C)[C@H]4CC[C@]3(C)[C@H]1[C@@H]2C [TOMATINE] | 0.753 µM (active) | 0.836 µM (active) | 1.7 µM (inactive) | 2.48 µM | 2.48 µM (inactive) | 1.3 µM (inactive) | 1.41 µM (inactive) | 1.95 µM (inactive) | 1.62 µM (inactive) | 0.719 µM (active) | 0.766 µM (active) | 1.55 µM (inactive) | 1.05 µM (active) | 1.56 µM (inactive) | 1.26 µM (inactive) | 1.68 µM (inactive) | 1.61 µM (inactive) | 1.86 µM (inactive) | 2.42 µM (inactive) | 1.02 µM (active)
3 | COC(=O)c1cc2c(o1)Sc1ccccc1NC2=O | > 100 µM (inactive) | – | > 100 µM (inactive) | > 100 µM | > 100 µM (inactive) | > 100 µM (inactive) | > 100 µM (inactive) | > 100 µM (inactive) | 2.75 µM (inactive) | > 100 µM (inactive) | > 100 µM (inactive) | 31.8 µM (inactive) | > 100 µM (inactive) | 29 µM (inactive) | > 100 µM (inactive) | > 100 µM (inactive) | > 100 µM (inactive) | 24.8 µM (inactive) | > 100 µM (inactive) | 83.2 µM (inactive)
4 | CCCCC[C@@H]1OCO[C@@]2(C)/C=C(C)\C=C/C(=O)O[C@H]([C@@H](C)[C@@H](O)[C@H](C)[C@@]3(O)C[C@@H](O[C@H]4C[C@@H](O)[C@H](O)[C@@H](C)O4)[C@H](C)[C@@H](C)O3)[C@@H](OC)/C=C\C=C(\C)C[C@@H]1[C@@H]2O (stereo in doubt) | < 0.005 µM (active) | < 0.005 µM (active) | < 0.005 µM (active) | 0.5 µM | < 0.005 µM (active) | 0.0239 µM (active) | < 0.005 µM (active) | < 0.005 µM (active) | < 0.005 µM (active) | < 0.005 µM (active) | < 0.005 µM (active) | < 0.005 µM (active) | < 0.005 µM (active) | < 0.005 µM (active) | 0.0724 µM (active) | < 0.005 µM (active) | 1.35 µM (inactive) | < 0.005 µM (active) | < 0.005 µM (active) | < 0.005 µM (active)
5 | COc1cc(/C=C/C=C2\CC(C)C/C(=C\C=C\c3ccc(O)c(OC)c3)C2=O)ccc1O (stereo unspecified) | 12.1 µM (inactive) | 10.3 µM (inactive) | 15 µM (inactive) | 25.1 µM | 7.35 µM (inactive) | 17 µM (inactive) | 8.32 µM (inactive) | 14.8 µM (inactive) | 0.522 µM (active) | 11.3 µM (inactive) | 7.13 µM (inactive) | 10.3 µM (inactive) | – | 22.1 µM (inactive) | 6.92 µM (inactive) | 17.1 µM (inactive) | 4.83 µM (inactive) | 15.1 µM (inactive) | 1.69 µM (inactive) | 12.1 µM (inactive)
6 | NC1=Nc2ccccc2Sc2nccn21 | 27.4 µM (inactive) | 27.7 µM (inactive) | 27.5 µM (inactive) | 25.2 µM | 18.7 µM (inactive) | 16.1 µM (inactive) | 23.7 µM (inactive) | 20.9 µM (inactive) | 19.3 µM (inactive) | 22.6 µM (inactive) | 18.2 µM (inactive) | 30.2 µM (inactive) | 22.3 µM (inactive) | 23.9 µM (inactive) | 35.8 µM (inactive) | 32.7 µM (inactive) | > 100 µM (inactive) | 17.9 µM (inactive) | 26.4 µM (inactive) | 32.8 µM (inactive)
7 | CCOC(=O)C(NC(=O)CC(C)C)(Nc1ccc(S(=O)(=O)Nc2nc(C)cc(C)n2)cc1)C(F)(F)F (stereo unspecified) | > 100 µM (inactive) | > 100 µM (inactive) | > 100 µM (inactive) | > 100 µM | > 100 µM (inactive) | > 100 µM (inactive) | > 100 µM (inactive) | > 100 µM (inactive) | > 100 µM (inactive) | > 100 µM (inactive) | > 100 µM (inactive) | > 100 µM (inactive) | > 100 µM (inactive) | > 100 µM (inactive) | > 100 µM (inactive) | > 100 µM (inactive) | > 100 µM (inactive) | 89.9 µM (inactive) | > 100 µM (inactive) | > 100 µM (inactive)
8 | O=C(O)c1c(O)c2cc(Br)ccc2oc1=O | > 100 µM (inactive) | > 100 µM (inactive) | > 100 µM (inactive) | > 100 µM | > 100 µM (inactive) | > 100 µM (inactive) | > 100 µM (inactive) | > 100 µM (inactive) | > 100 µM (inactive) | > 100 µM (inactive) | > 100 µM (inactive) | > 100 µM (inactive) | > 100 µM (inactive) | > 100 µM (inactive) | > 100 µM (inactive) | > 100 µM (inactive) | – | > 100 µM (inactive) | > 100 µM (inactive) | > 100 µM (inactive)
9 | CCOC(=O)C(NNS(=O)(=O)c1ccc(C)cc1)S(=O)(=O)C(F)(F)C(F)(F)C(F)(F)C(F)(F)F (stereo unspecified) | > 100 µM (inactive) | > 100 µM (inactive) | 64 µM (inactive) | > 100 µM | > 100 µM (inactive) | > 100 µM (inactive) | > 100 µM (inactive) | > 100 µM (inactive) | > 100 µM (inactive) | > 100 µM (inactive) | > 100 µM (inactive) | > 100 µM (inactive) | 78.3 µM (inactive) | > 100 µM (inactive) | > 100 µM (inactive) | > 100 µM (inactive) | > 100 µM (inactive) | > 100 µM (inactive) | > 100 µM (inactive) | 88.9 µM (inactive)
10 | C=CC1C(OC2OC(CO)C(O)C(O)C2O)OC=C(C(=O)OC)C1CC1CC(=O)CC(CCc2ccc(O)cc2)O1 (stereo unspecified) | > 100 µM (inactive) | > 100 µM (inactive) | > 100 µM (inactive) | > 100 µM | > 100 µM (inactive) | > 100 µM (inactive) | > 100 µM (inactive) | > 100 µM (inactive) | > 100 µM (inactive) | > 100 µM (inactive) | > 100 µM (inactive) | > 100 µM (inactive) | > 100 µM (inactive) | > 100 µM (inactive) | > 100 µM (inactive) | > 100 µM (inactive) | > 100 µM (inactive) | > 100 µM (inactive) | > 100 µM (inactive) | > 100 µM (inactive)
11 | CC(=O)NNc1nc(C)c(C(/C=C/c2ccccc2O)=N/NC(=O)c2ccncc2)s1 | > 100 µM (inactive) | > 100 µM (inactive) | > 100 µM (inactive) | > 100 µM | > 100 µM (inactive) | > 100 µM (inactive) | > 100 µM (inactive) | > 100 µM (inactive) | > 100 µM (inactive) | > 100 µM (inactive) | > 100 µM (inactive) | > 100 µM (inactive) | > 100 µM (inactive) | > 100 µM (inactive) | > 100 µM (inactive) | > 100 µM (inactive) | > 100 µM (inactive) | > 100 µM (inactive) | > 100 µM (inactive) | > 100 µM (inactive)
12 | CC(=O)CCC[C@@H](C)[C@@H]1O[C@H]([C@@]2(C)CCC(=O)O2)C[C@H]2C(CSc3ccccc3)C(=O)O[C@@H]12 (stereo partly specified) | 12.7 µM (inactive) | 9.98 µM (inactive) | 15.6 µM (inactive) | 17.3 µM | 2.42 µM (inactive) | 18.1 µM (inactive) | 16.1 µM (inactive) | 14.8 µM (inactive) | 3.6 µM (inactive) | 19 µM (inactive) | 13.3 µM (inactive) | 20 µM (inactive) | 44.1 µM (inactive) | 14.6 µM (inactive) | 18.7 µM (inactive) | 17.3 µM (inactive) | 44.7 µM (inactive) | > 40.4 µM (inactive) | 6.79 µM (inactive) | 16.9 µM (inactive)
13 | COC(=O)C1(O)c2ccccc2N=C2C(=O)c3ccccc3N21 (stereo unspecified) [METHYLISATOID] | > 100 µM (inactive) | > 100 µM (inactive) | > 100 µM (inactive) | > 100 µM | > 100 µM (inactive) | 41.6 µM (inactive) | 12.2 µM (inactive) | > 100 µM (inactive) | > 100 µM (inactive) | 36.6 µM (inactive) | > 100 µM (inactive) | > 100 µM (inactive) | > 100 µM (inactive) | > 100 µM (inactive) | > 100 µM (inactive) | > 100 µM (inactive) | – | > 100 µM (inactive) | > 100 µM (inactive) | > 100 µM (inactive)
